Laboratory results reported in patent publication EP2057188B1 (priority 2006, dated 2008).
Like-named read-outs stand apart in the source and are kept apart here. Ends that are not written are not given here.

Legend:
[1] = type: in vivo, NIH/Swiss mice
Protocol: Gavage (1.5g/kg) was given at t=0. Sample was taken at t=30 min.

[2] = IVGTT duration of action assay, single SC injection; type: in vivo, rat; conditions: for Duration In The Rat IVGTT Assay: compared with 0601GIP3794 (794), @ -120 min
Protocol: In the typical IVGTT assays the test sample was administered by IV infusion. The IV infusion of sample was initiated at t = -30min and continued through t = 90. IV glucose was given at t = 0. To determine a duration of action using the IVGTT assay, the sample was injected SC as a single injection at one time point indicated (e.g., t = -240, -120, -60 or -30) prior to administration of glucose. IV glucose was given at t = 0.

[3] = inhibition of gastric emptying, subcutaneous, cited from earlier work
[4] = tested on: cardiomyocyte Gs- and Gi-coupled receptors; assay: cAMP assay in neonatal cardiomyocytes; type: cell-based, rat
Protocol: Activation of cardiomyocyte Gs- and Gi-coupled receptors was determined as a measure of cAMP production.
Neonatal cardiomyocytes were isolated using a commercially available system. […] Sprague Dawley neonatal rats (1-2 days old) were decapitated and the beating heart dissected out into digestion buffer (Cellutron D1 buffer) to dissociate cells. […] The resuspended cells incubated in buffer (Cellutron D3 buffer) for sufficient time to allow optimal dispersion and minimize the need for pipetting to break up clumps. Cells released from the first 2 digestions were discarded since a significant portion of these is red blood cells. Resuspended cells were filtered and allowed to pre-plate for 1 hour on plastic in an incubator in NS media (Cellutron, NJ) in order to remove fibroblasts. After 1 hour of pre-plating, floating cells are removed and the flask rinsed with NS media. The floating cells and the cells in the rinse media were combined and counted. Residual red blood cells, which are smaller that the cardiac myocytes, were not counted.
At Day 1, the NS media was replaced with fresh NS media.
Dose response was determined.
For Gs assays the positive control was 10uM forskolin and negative control was buffer. For Gi assays the positive control was buffer and the negative control was 10uM forskolin.

[5] = type: in vivo, C57BL/6 mice; conditions: infused via osmotic pump for 2 weeks, high-fat diet
[6] = type: in vivo, rats; set-up: AUC Change in Insulin Pre IVGTT / AUC Change in Insulin Post IVGTT: unit not given beside the values
[7] = IP at t=0; consumed at t=30, 60, 120 min
[8] = type: in vivo, NIH/Swiss mice; conditions: mouse, in vivo
Protocol: In Figure 3A, bars represent mean ± sd, n=6-10. […] Gavage (1.5g/kg) was given at t=0. Sample was taken at t=30 min. […] In Figure 3B, points represent mean ± sem, n=8-15.
In Figure 13B bars represent mean +/- sd. Peptide was injected IP at t = -5 minutes into 4-hour fasted NIH/Swiss female mice. Gavage (1.5g/kg) was given at t = 0. […] In Figure 17 points represent mean +/- sem. […] Samples were taken at t=60, t=120 and t=180.

[9] = type: in vivo, db/db mice; conditions: Figure 4; GIP at a 10 fold higher dose
Protocol: Peptide was injected IP at t=0 immediately following baseline sample into 2-hour fasted db/db mice.

[10] = Circulatory system effects in conscious rats by telemetry; type: in vivo, Harlan Sprague Dawley rats; conditions: 80 nmol/kg, remote intravenous dosing
[11] = cardiomyocyte Gs-coupled receptor activation, three independent experiments
[12] = 100 pmol/kg/min infusion dose in rats
[13] = insulin levels at 0-30 minutes as AUC, rat

Molecule: CC[C@H](C)[C@H](NC(=O)[C@H](CO)NC(=O)[C@H](Cc1ccc(O)cc1)NC(=O)[C@H](CC(=O)O)NC(=O)[C@H](CO)NC(=O)[C@@H](NC(=O)[C@H](Cc1ccccc1)NC(=O)[C@@H](NC(=O)CNC(=O)[C@H](CCC(=O)O)NC(=O)[C@@H](C)NC(=O)[C@@H](N)Cc1ccc(O)cc1)[C@@H](C)O)[C@@H](C)CC)C(=O)N[C@@H](C)C(=O)N[C@@H](CC(C)C)C(=O)N[C@@H](CC(=O)O)C(=O)N[C@@H](CCCCN)C(=O)N[C@H](C(=O)N[C@@H](Cc1c[nH]cn1)C(=O)N[C@@H](CCC(N)=O)C(=O)N[C@@H](CCC(N)=O)C(=O)N[C@@H](CC(=O)O)C(=O)N[C@@H](Cc1ccccc1)C(=O)N[C@H](C(=O)N[C@@H](CC(N)=O)C(=O)N[C@@H](Cc1c[nH]c2ccccc12)C(=O)N[C@@H](CC(C)C)C(=O)N[C@@H](CC(C)C)C(=O)N[C@@H](C)C(=O)N[C@@H](CCC(N)=O)C(=O)N[C@@H](CCCCN)C(=O)N1CCC[C@H]1C(=O)N[C@@H](CCCCN)C(=O)N[C@@H](CCCCN)C(=O)N[C@H](C(=O)N[C@@H](CCCNC(=N)N)C(=O)N[C@@H](Cc1ccc(O)cc1)C(=O)N[C@@H](CO)C(N)=O)[C@@H](C)CC)C(C)C)[C@@H](C)CC [0601 GIP48 07]
- Basal Glucose Lowering at 80 nmol/Kg ([1]; AUC240): -26%, AUC240
- Duration In The Rat IVGTT Assay [2]: < 794 @-120 min

Molecule: CC[C@H](C)[C@H](NC(=O)[C@H](CO)NC(=O)[C@H](Cc1ccc(O)cc1)NC(=O)[C@H](CC(=O)O)NC(=O)[C@H](CO)NC(=O)[C@@H](NC(=O)[C@H](Cc1ccccc1)NC(=O)[C@@H](NC(=O)CNC(=O)[C@H](CCC(=O)O)NC(=O)[C@@H](C)NC(=O)[C@@H](N)Cc1ccc(O)cc1)[C@@H](C)O)[C@@H](C)CC)C(=O)N[C@@H](C)C(=O)N[C@@H](CCSC)C(=O)N[C@@H](CC(=O)O)C(=O)N[C@@H](CCCCN)C(=O)N[C@H](C(=O)N[C@@H](Cc1c[nH]cn1)C(=O)N[C@@H](CCC(N)=O)C(=O)N[C@@H](CCC(N)=O)C(=O)N[C@@H](CC(=O)O)C(=O)N[C@@H](Cc1ccccc1)C(=O)N[C@H](C(=O)N[C@@H](CC(N)=O)C(=O)N[C@@H](Cc1c[nH]c2ccccc12)C(=O)N[C@@H](CC(C)C)C(=O)N[C@@H](CC(C)C)C(=O)N[C@@H](C)C(=O)N[C@@H](CCC(N)=O)C(=O)N[C@@H](CCCCN)C(=O)N1CCC[C@H]1C(=O)N[C@@H](CCCCN)C(=O)N[C@@H](CCCCN)C(=O)N[C@@H](C)C(=O)N[C@@H](CCCNC(=N)N)C(=O)N[C@@H](Cc1ccc(O)cc1)C(=O)N[C@@H](CO)C(N)=O)C(C)C)[C@@H](C)CC [0601 GIP48 56]
- Basal Glucose Lowering at 80 nmol/Kg ([1]; AUC240): -3%, AUC240
- Duration In The Rat IVGTT Assay [2]: <794@-120 min

Molecule: CC[C@H](C)[C@H](NC(=O)[C@H](CO)NC(=O)[C@H](Cc1ccc(O)cc1)NC(=O)[C@H](CC(=O)O)NC(=O)[C@H](CO)NC(=O)[C@@H](NC(=O)[C@H](Cc1ccccc1)NC(=O)[C@@H](NC(=O)CNC(=O)[C@H](CCC(=O)O)NC(=O)[C@@H](C)NC(=O)[C@@H](N)Cc1ccc(O)cc1)[C@@H](C)O)[C@@H](C)CC)C(=O)N[C@@H](C)C(=O)N[C@@H](CCSC)C(=O)N[C@@H](CC(=O)O)C(=O)N[C@@H](CCCCN)C(=O)N[C@H](C(=O)N[C@@H](Cc1c[nH]cn1)C(=O)N[C@@H](CCC(N)=O)C(=O)N[C@@H](CCC(N)=O)C(=O)N[C@@H](CC(=O)O)C(=O)N[C@@H](Cc1ccccc1)C(=O)N[C@H](C(=O)N[C@@H](CC(N)=O)C(=O)N[C@@H](Cc1c[nH]c2ccccc12)C(=O)N[C@@H](CC(C)C)C(=O)N[C@@H](CC(C)C)C(=O)N[C@@H](C)C(=O)N[C@@H](CCC(N)=O)C(=O)N[C@@H](CCCCN)C(=O)N1CCC[C@H]1C(=O)N[C@@H](CCC(N)=O)C(=O)N[C@@H](CCCCN)C(=O)N[C@H](C(=O)N[C@@H](CCCNC(=N)N)C(=O)N[C@@H](Cc1ccc(O)cc1)C(=O)N[C@@H](CO)C(N)=O)[C@@H](C)CC)C(C)C)[C@@H](C)CC [0601 GIP48 53]
- Basal Glucose Lowering at 80 nmol/Kg ([1]; AUC240): -20%, AUC240
- Duration In The Rat IVGTT Assay [2]: < 794@ -120 min

Molecule: HAEGTFTSDVSSYLEGQAAKEFIAWLVKGR-NH2 [GLP-1]
- EC(50) ([3]; conscious rats ~200g): 1.82 µg
- EC(50) ([3]; conscious rats): 2.76 nmol/kg
- cAMP activity in cardiomyocytes ([4]; data not shown): very low to no significant activity

Molecule: CC[C@H](C)[C@H](NC(=O)[C@H](CO)NC(=O)[C@H](Cc1ccc(O)cc1)NC(=O)[C@H](CC(=O)O)NC(=O)[C@H](CO)NC(=O)[C@@H](NC(=O)[C@H](Cc1ccccc1)NC(=O)[C@@H](NC(=O)CNC(=O)[C@H](CCC(=O)O)NC(=O)[C@@H](C)NC(=O)[C@@H](N)Cc1ccc(O)cc1)[C@@H](C)O)[C@@H](C)CC)C(=O)N[C@@H](C)C(=O)N[C@@H](CCSC)C(=O)N[C@@H](CC(=O)O)C(=O)N[C@@H](CCCCN)C(=O)N[C@H](C(=O)N[C@@H](Cc1c[nH]cn1)C(=O)N[C@@H](CCC(N)=O)C(=O)N[C@@H](CCC(N)=O)C(=O)N[C@@H](CC(=O)O)C(=O)N[C@@H](Cc1ccccc1)C(=O)N[C@H](C(=O)N[C@@H](CC(N)=O)C(=O)N[C@@H](Cc1c[nH]c2ccccc12)C(=O)N[C@@H](CC(C)C)C(=O)N[C@@H](CC(C)C)C(=O)N[C@@H](C)C(=O)N[C@@H](CCC(N)=O)C(=O)N[C@@H](CCCCN)C(=O)N1CCC[C@H]1C(=O)N[C@@H](C)C(=O)N[C@@H](CCCCN)C(=O)N[C@H](C(=O)N[C@@H](CCCNC(=N)N)C(=O)N[C@@H](Cc1ccc(O)cc1)C(=O)N[C@@H](CO)C(N)=O)[C@@H](C)CC)C(C)C)[C@@H](C)CC [0601 GIP48 15]
- Basal Glucose Lowering at 80 nmol/Kg ([1]; AUC240): -14%, AUC240
- Duration In The Rat IVGTT Assay [2]: < 794@ -120 min

Molecule: CC[C@H](C)[C@H](NC(=O)[C@H](C)NC(=O)[C@H](CCCCN)NC(=O)[C@@H]1CCCN1C(=O)[C@H](CCCCN)NC(=O)[C@H](CCC(N)=O)NC(=O)[C@H](C)NC(=O)[C@H](CC(C)C)NC(=O)[C@H](CC(C)C)NC(=O)[C@H](Cc1c[nH]c2ccccc12)NC(=O)[C@H](CC(N)=O)NC(=O)[C@@H](NC(=O)[C@H](Cc1ccccc1)NC(=O)[C@H](CC(=O)O)NC(=O)[C@H](CCC(N)=O)NC(=O)[C@H](CCC(N)=O)NC(=O)[C@H](Cc1c[nH]cn1)NC(=O)[C@@H](NC(=O)[C@H](CCCCN)NC(=O)[C@H](CC(=O)O)NC(=O)[C@H](CCSC)NC(=O)[C@H](C)NC(=O)[C@@H](NC(=O)[C@H](CO)NC(=O)[C@H](Cc1ccc(O)cc1)NC(=O)[C@H](CC(=O)O)NC(=O)[C@H](CO)NC(=O)[C@@H](NC(=O)[C@H](Cc1ccccc1)NC(=O)[C@@H](NC(=O)CNC(=O)[C@H](CCC(=O)O)NC(=O)[C@@H](C)NC(=O)[C@@H](N)Cc1ccc(O)cc1)[C@@H](C)O)[C@@H](C)CC)[C@@H](C)CC)[C@@H](C)CC)C(C)C)C(=O)N[C@@H](CCCNC(=N)N)C(=O)N[C@@H](Cc1ccc(O)cc1)C(=O)N[C@@H](CO)C(N)=O [0601 GIP48 16]
- Basal Glucose Lowering at 80 nmol/Kg ([1]; AUC240): -9%, AUC240
- Duration In The Rat IVGTT Assay [2]: <794@-120 min

Molecule: urocortin: known cardiac myocyte Gs-coupled receptor activator used as a positive control (DNPSLSIDLTFHLLRTLLELARTQSQRERAEQNRIIFDSV; ends and bridges not checked; UniProt P55089 83-122, looked up)
- EC(50) [4, 11]: 0.7 nM

Molecule: YaEGTFISDYSIAMDKIHQQDFVNWLLAQKPSSGAPPPS-NH2 [Compound 0601GIP3794]
- body weight change in diet-induced-obese mice [5]: without a concomitant reduction in body weight
- Basal Glucose Lowering at 80 nmol/Kg ([1]; AUC180): -9%
- Basal Glucose Lowering at 80 nmol/Kg ([1]; AUC240): -7 to-20%
- glucose lowering in normal mice ([1]; Figures 3A and 3B, NIH/Swiss mice): significantly more efficacious than full length GIP
- glucose lowering profile ([1]; Figures 8A and 8B, IP at t=0, 2-hour fasted NIH/Swiss mice): gradually increasing activity that peaks at t=120min
- insulin levels prior to the glucose challenge [6, 12]: significant rise in insulin levels
- insulinotropic response to an intravenous glucose challenge [6, 12]: significant enhancement of the insulinotropic response
- Standard IVGTT assay IV infusion (100 pmol/min/kg) [6, 13]: 249
- AUC Change in Insulin Post IVGTT ([6]; rat, in vivo): 173.1+-29.4
- AUC Change in Insulin Pre IVGTT ([6]; rat, in vivo): 28.8 +-10.7
- acute food intake [7]: did not acutely inhibit food intake
- OGTT ED50 [8]: ~2 nmol/kg
- Duration of action in assay SC inj T = -30 min [2, 13]: 198
- Duration of action in assay SC inj T = -60 min [2, 13]: 159
- Duration of action in assay SC inj T = -120 min [2, 13]: 204
- Duration of action in assay SC inj T= -240 min [2, 13]: 79
- glucose lowering in a diabetic mouse model [9]: pronounced and long-acting effect in lowering glucose
- dP/dt (inotropic effect) [10]: prolonged inotropic effect
- heart rate [10]: transient relative to GIP
- mean arterial pressure [10]: decreased mean arterial pressure
- systolic and diastolic pressures ([10]; compared to vehicle or GIP): sustained lowering of systolic and diastolic pressures
- EC(50) ([4]; cAMP production, experiment of Figures 18A/18B): 11.7 nM
- EC(50) [4, 11]: 29.8 nM
